Values of other authors, collected in patent publication US6620802B1, “Methods of treating mild cognitive impairment using a glucocorticoid-specific receptor antagonist” (Corcept Therapeutics, Inc., priority 1999, dated 2003).

Legend:
progesterone receptor = molecular target: T1, progesterone receptor (Homo sapiens, UniProt P06401); settings: literature statement
T1 sequence (P06401 1-933): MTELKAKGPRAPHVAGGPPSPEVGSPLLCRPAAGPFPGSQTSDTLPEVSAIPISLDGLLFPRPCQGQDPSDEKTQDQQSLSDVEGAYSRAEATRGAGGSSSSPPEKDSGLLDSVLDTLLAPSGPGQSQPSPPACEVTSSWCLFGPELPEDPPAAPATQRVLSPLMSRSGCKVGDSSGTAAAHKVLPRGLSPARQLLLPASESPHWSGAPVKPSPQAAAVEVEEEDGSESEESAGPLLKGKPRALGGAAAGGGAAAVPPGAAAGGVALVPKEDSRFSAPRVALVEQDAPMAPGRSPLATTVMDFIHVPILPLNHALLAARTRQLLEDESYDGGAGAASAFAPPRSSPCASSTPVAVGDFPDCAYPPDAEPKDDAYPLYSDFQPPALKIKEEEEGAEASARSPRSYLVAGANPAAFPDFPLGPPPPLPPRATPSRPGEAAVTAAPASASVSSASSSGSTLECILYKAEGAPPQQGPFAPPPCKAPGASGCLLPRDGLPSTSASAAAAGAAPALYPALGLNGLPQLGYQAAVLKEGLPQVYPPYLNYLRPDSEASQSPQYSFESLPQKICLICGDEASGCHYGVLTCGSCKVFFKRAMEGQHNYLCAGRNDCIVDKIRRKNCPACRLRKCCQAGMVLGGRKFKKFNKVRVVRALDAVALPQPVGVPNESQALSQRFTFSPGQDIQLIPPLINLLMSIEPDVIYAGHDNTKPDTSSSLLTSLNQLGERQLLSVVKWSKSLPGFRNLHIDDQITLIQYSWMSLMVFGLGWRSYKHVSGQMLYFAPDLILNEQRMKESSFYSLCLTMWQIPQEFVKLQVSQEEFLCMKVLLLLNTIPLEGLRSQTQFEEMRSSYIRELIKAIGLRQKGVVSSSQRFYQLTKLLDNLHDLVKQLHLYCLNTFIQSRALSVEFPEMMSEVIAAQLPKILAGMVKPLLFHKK

[1] = system: mouse hippocampus neuronal cells; settings: Behl et al. 1997
[2] = one study, Kawai (1989) supra
[3] = molecular target: T2, glucocorticoid (GR) receptor (Homo sapiens, UniProt P04150); settings: literature statement
T2 sequence (P04150 1-777): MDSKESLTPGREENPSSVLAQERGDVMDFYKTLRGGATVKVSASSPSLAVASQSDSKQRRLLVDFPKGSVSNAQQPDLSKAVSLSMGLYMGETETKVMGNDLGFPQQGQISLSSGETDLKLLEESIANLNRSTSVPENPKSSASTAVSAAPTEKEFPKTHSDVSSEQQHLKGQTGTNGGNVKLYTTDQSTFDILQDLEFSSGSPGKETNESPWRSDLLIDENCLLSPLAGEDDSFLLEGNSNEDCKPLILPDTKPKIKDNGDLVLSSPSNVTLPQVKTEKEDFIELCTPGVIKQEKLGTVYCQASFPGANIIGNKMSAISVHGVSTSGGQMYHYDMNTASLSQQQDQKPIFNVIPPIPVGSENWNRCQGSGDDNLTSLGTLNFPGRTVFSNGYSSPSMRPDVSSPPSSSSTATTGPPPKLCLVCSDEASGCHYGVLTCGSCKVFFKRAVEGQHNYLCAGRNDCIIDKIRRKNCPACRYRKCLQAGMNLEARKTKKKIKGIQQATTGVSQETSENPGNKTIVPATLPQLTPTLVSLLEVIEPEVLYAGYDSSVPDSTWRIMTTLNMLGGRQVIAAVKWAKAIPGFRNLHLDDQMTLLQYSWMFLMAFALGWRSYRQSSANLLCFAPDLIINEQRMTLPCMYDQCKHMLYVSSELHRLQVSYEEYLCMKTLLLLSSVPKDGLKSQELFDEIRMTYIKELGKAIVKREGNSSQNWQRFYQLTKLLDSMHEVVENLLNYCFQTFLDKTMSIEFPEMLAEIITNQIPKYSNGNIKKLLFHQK

rat hippocampus = settings: Talmi et al. 1996

Row | SMILES | progesterone receptor antagonist activity (progesterone receptor) | protection against oxidative stress-induced neuronal cell death [1] | share of the daily dose excreted in the urine [2] | GR antagonist activity [3] | effect on age-associated electrophysiological changes (rat hippocampus)
1 | CC#C[C@]1(O)CC[C@H]2[C@@H]3CCC4=CC(=O)CCC4=C3[C@@H](c3ccc(N(C)C)cc3)C[C@@]21C [Mifepristone, 17-beta-hydroxy-11-beta-(4-dimethyl-aminophenyl)-17-alpha(1-propynyl)-estra-4,9-dien-3-one] | powerful antagonist | providing protection against oxidative stress-induced neuronal cell death | less than 0.5% | powerful antagonist | effective at abrogating some of the age-associated electrophysiological changes
2 | CC#C[C@]1(O)CC[C@H]2[C@@H]3CCC4=CC(=O)CCC4=C3[C@@H](c3ccc(OCCN(C)C)cc3)C[C@@]21C [RU009, 11-beta-(4-dimethyl-aminoethoxyphenyl)-17-alpha-(propynyl-17-beta-hydroxy-4,9-estradien-3-one)] |  |  |  | shown to have GR antagonist effects | 
